Source: US20120289432A1, “PI3K MODULATORS, RHO KINASE MODULATORS AND METHODS OF IDENTIFYING AND USING SAME” (Corning Incorporated, priority 2009, published 2012)
“Also recorded” adds a separate entry of the source. Like-named read-outs stand apart in the source and are kept apart here.

Key:
Type in all cases: cell-based, human
A549 and HepG2 cells = experiment: Biosensor index against panel of cells/markers (A549 and HepG2), compared with Y-27632
Text: It is well known that many kinas inhibitors often display polypharmacology (i.e., many kinase inhibitors can modulate the activity of multi-targets in a cell). In addition, drugs including kinase inhibitors often display cell- or tissue-dependent phenotypic pharmacology, due to the many cellular factors including post-transcriptional modifications, compartmentalization of signaling cascades, alteration of key gene products in the pathway, receptor oligomerization, and constitutive receptor activity. […] Thus, the primary modes of action of a drug or drug candidate molecule, including ROCK inhibitors, are a sum of at least several types of pharmacology—polypharmacology, phenotypic pharmacology and systems (integrative) pharmacology. To correctly detect the phenotypic pharmacology of a ROCK inhibitor that acts via the inhibition of ROCK activity in live cell, one needs a panel of cells as well as panels of markers using the biosensor cellular assays. Thus, a ROCK inhibitor responsive cell line, A549, and a ROCK inhibitor unresponsive cell line, HepG2, were chosen as model systems. […]

A549 cells [1] = experiment: Label-free RWG (Epic) biosensor DMR assay, agonism mode, A549 cells; settings: for EC50: Homo sapiens; for maximal amplitude / maximal response of the N-DMR signal: n=4
Description: (§1) Cells were typically grown using ˜1 to 2×10^4 cells per well at passage 3 to 15 suspended in 50 μl of the corresponding culture medium in the biosensor microplate, and were cultured at 37° C. under air/5% CO2 for ˜1 day. Except for A431 which underwent one day culture followed by one starvation in serum free medium, all other cells were directly assayed without starvation. The confluency for all cells at the time of assays was ˜95% to 100%.
(§2) Epic® beta version wavelength interrogation system (Corning Inc., Corning, N.Y.) was used for whole cell sensing. This system consists of a temperature-control unit, an optical detection unit, and an on-board liquid handling unit with robotics. The detection unit is centered on integrated fiber optics, and enables kinetic measures of cellular responses with a time interval of ˜15 sec.
(§3) For biosensor cellular assays, molecule solutions were made by diluting the stored concentrated solutions with the HBSS (1× Hanks balanced salt solution, plus 20 mM Hepes, pH 7.1), and transferred into a 384 well polypropylene molecule storage plate to prepare a molecule source plate. Both molecule and marker source plates were made separately when a two-step assay was performed. In parallel, the cells were washed twice with the HBSS and maintained in 30 μl of the HBSS to prepare a cell assay plate. Both the cell assay plate and the molecule and marker source plate(s) were then incubated in the hotel of the reader system. After ˜1 hr of incubation the baseline wavelengths of all biosensors in the cell assay microplate were recorded and normalized to zero. Afterwards, a 2 to 10 minute continuous recording was carried out to establish a baseline, and to ensure that the cells reached a steady state. Cellular responses were then triggered by pipetting 10 μl of the marker solutions into the cell assay plate using the on-board liquid handler.
(§4) All studies were carried out at a controlled temperature (28° C.). At least two independent sets of experiments, each with at least three replicates, were performed.

HepG2 cells [2] = experiment: Label-free RWG biosensor DMR assay, agonism mode, HepG2 cells; settings: primary profile
Description: as §1, §2
For biosensor cellular assays, molecule solutions were made by diluting the stored concentrated solutions with the HBSS (1× Hanks balanced salt solution, plus 20 mM Hepes, pH 7.1), and transferred into a 384 well polypropylene molecule storage plate to prepare a molecule source plate. […] Both the cell assay plate and the molecule and marker source plate(s) were then incubated in the hotel of the reader system. After ˜1 hr of incubation the baseline wavelengths of all biosensors in the cell assay microplate were recorded and normalized to zero. […]

A431 cells = experiment: DMR modulation of the EGF-induced response in quiescent A431 cells
Description: (§5) The index was generated after normalizing each marker-induced DMR signal in the presence of the inhibitor to its corresponding signal in the absence of the inhibitor. The percentage of modulation for each marker by the inhibitor was plotted as a function of the marker. As shown from left to right in a sequential order, the DMR events used for the basis of the modulation percentage calculation are: the N-DMR (50 min after stimulation) for pinacidil in A549, the P-DMR (50 min after stimulation) for forskolin in A549, the early P-DMR event (˜10 min after histamine stimulation) and the late P-DMR event (˜30 min after histamine stimulation) for histamine in A549, and the early P-DMR event (˜5 min after EGF stimulation) and the subsequent N-DMR event (˜30 min after EGF stimulation) for EGF in A431 cells. In all cases, the amplitudes of respective DMR events were used as the basis to calculate the percentages of modulation by the PI3K inhibitors. The same procedure was used to generate FIGS. 8 to 14.
as §1, §3
(§6) To study the influence of molecules on a marker-induced response, a second stimulation with the marker at a fixed dose (typically at EC80 or EC100) was applied. The resonant wavelengths of all biosensors in the microplate were normalized again to establish a second baseline, right before the second stimulation. The two stimulations were usually separated by ˜1 hr.
as §4

A549 cells [3] = experiment: DMR modulation of marker-induced responses (two-step assay) in A549 cells; settings: for modulation of the pinacidil response in A549 cells: compound pretreatment ~1 hr (10 micromolar), then pinacidil 10 micromolar; for modulation of the forskolin response (P-DMR) in A549 cells / modulation of the histamine response (early and late P-DMR) in A549 cells: inhibitor 10 micromolar; for modulation of the forskolin response (P-DMR) in A549 cells: forskolin 16 micromolar; for modulation of the histamine response (early and late P-DMR) in A549 cells: histamine 10 micromolar
Description: as §5, §1, §3, §6, §4

A549 and A431 cells = experiment: DMR index against panels of markers across A549 and A431 cells, compared with LY294002; settings: markers pinacidil, forskolin, histamine (A549), EGF (A431)
Description: as §5
Optical biosensors such as RWG biosensor measure dynamic mass redistribution (DMR) signals of cells upon stimulation. A DMR index contains the primary DMR profile or signal of a chemical acting on a panel of live cells, and the modulation index of the chemical against panels of markers across the panel of cells, a panel of markers for each cell line. […]

HepG2 cells [4] = experiment: DMR modulation of the ODN2006-induced response in HepG2 cells; settings: inhibitor 10 micromolar, ODN2006 500 nM
Description: as §1
as §3, with “Cellular responses were then triggered by pipetting 10 μl of the marker solutions into the cell assay plate using the on-board liquid handler.” left out

[5] = inhibitor 10 micromolar, EGF 32 nM
[6] = ~30 min after histamine stimulation

Compound	modulation of the P-DMR event of the EGF response in A431 cells (A431 cells; [5])	modulation of the pinacidil response in A549 cells (A549 cells [3])	modulation of the forskolin response (P-DMR) in A549 cells (A549 cells [3])	modulation of the histamine response (early and late P-DMR) in A549 cells (A549 cells [3])	other results
CDK1/2 inhibitor III	–	–	–	–	modulation of the biosensor signals of the markers in the panel (A549 and HepG2 cells; pinacidil, poly(IC), PMA, SLIGKV-amide, forskolin, histamine (A549), ODN2006 (HepG2)): attenuated the biosensor signals of most of markers; biosensor index compared with the Y-27632 biosensor index (A549 and HepG2 cells; primary profiles in A549 and HepG2 and modulation index against the panel of markers): quite distinct biosensor index; DMR (biosensor) signal of the compound in A549 cells (A549 cells [1]; primary profile): negative DMR signal; DMR (biosensor) signal of the compound in HepG2 cells (HepG2 cells [2]): small decaying signal
Cc1cc(C(C)Nc2ccccc2)c2nc(N3CCOCC3)cc(=O)n2c1 (racemic) [PI3Kβ inhibitor II, (+/−)-7-Methyl-2-(morpholin-4-yl)-9-(1-phenylaminoethyl)-pyridol[1,2-a]-pyrimidin-4-one]	significantly attenuated	–	–	–	modulation of the late P-DMR event of the histamine response in A549 cells (A549 cells [3]; [6]): slightly suppression
Oc1ccc(C=Cc2cc(O)cc(O)c2)cc1 [resveratrol]	small attenuation	little or not modulation	significant potentiation	significant potentiation	–
O=S(=O)(NCCNC/C=C/c1ccc(Br)cc1)c1cccc2cnccc12 [H-89]	–	complete or significant attenuation	–	–	–
O=c1cc(N2CCOCC2)oc2c1ccc1ccccc12 [DNA-PK inhibitor II, 2-(Morpholin-4-yl)-benzo[h]chromen-4-one]	small attenuation	little or not modulation	significant potentiation	significant potentiation	–
CC(N/C(=N\C#N)Nc1ccncc1)C(C)(C)C (stereo not drawn) [pinacidil]	–	–	–	–	EC50 (A549 cells [1]; stimulation with pinacidil, read-out: EC50 of the biosensor signal): ~5 µM
O=c1cc(N2CCOCC2)oc2c(-c3ccccc3)cccc12 [LY294002]	–	–	–	–	EC50 (A549 cells [1]; 50 min, N-DMR amplitudes ~50 min after stimulation, n=4, read-out: EC50 of the N-DMR signal): 14.7 ± 1.5 µM; maximal amplitude / maximal response of the N-DMR signal (A549 cells [1]): ~400 picometers; modulation of the pinacidil response (N-DMR) (A549 cells [3]; N-DMR 50 min after stimulation, marker signal with inhibitor normalized to signal without, FIG. 7C): −9%; modulation of the forskolin response (P-DMR) (A549 cells [3]; P-DMR 50 min after stimulation, FIG. 7C): +33%; modulation of the histamine response, early P-DMR (A549 cells [3]; ~10 min after histamine stimulation, FIG. 7C): +41%; modulation of the histamine response, late P-DMR (A549 cells [3]; ~30 min after histamine stimulation, FIG. 7C): +90%
Oc1cccc(-c2nc(N3CCOCC3)c3oc4ncccc4c3n2)c1 [PI-103]	small attenuation	little or not modulation	significant potentiation	significant potentiation	–
O=c1cc(N2CCNCC2)oc2c(-c3ccccc3)cccc12 [LY303511]	–	–	–	–	type of DMR index compared with the PI3K inhibitor LY294002 (A549 and A431 cells): completely distinct type of DMR index
NC(N)=NCCNS(=O)(=O)c1cccc2cnccc12 [HA-1004]	–	complete or significant attenuation	–	–	–
O=C1NC(=O)C(=Cc2ccc3nccnc3c2)S1 [PI3Kγ inhibitor, 5-quinoxalin-6-ylmethylene-thiazolindine-2,4-dione]	small attenuation	little or not modulation	significant potentiation	significant potentiation	modulation of the late P-DMR event of the histamine response in A549 cells (A549 cells [3]; [6]): moderate potentiation
Rho kinase inhibitor IV	–	complete or significant attenuation	–	–	–
c1ccc2c(-c3ccncc3)c[nH]c2c1 [Rho kinase inhibitor III Rockout]	–	complete or significant attenuation	–	–	–
COC[C@H]1OC(=O)c2coc3c2[C@@]1(C)C1=C(C3=O)[C@@H]2CCC(=O)[C@@]2(C)C[C@H]1OC(C)=O [wortmannin]	–	–	–	–	EC50 (A549 cells [1]; 50 min, N-DMR amplitudes ~50 min after stimulation, n=4, read-out: EC50 of the DMR signal): 0.0727 ± 0.0034 µM; maximal amplitude / maximal response of the N-DMR signal (A549 cells [1]): ~700 picometers
O=c1c(O)c(-c2ccc(O)c(O)c2)oc2cc(O)cc(O)c12 [quercetin]	small attenuation	little or not modulation	potentiated; also recorded: significant potentiation	potentiated; also recorded: significant potentiation	modulation of the ODN2006 DMR signal in HepG2 cells (HepG2 cells [4]): slightly attenuated; modulation of the N-DMR event of the EGF response in A431 cells (A431 cells; [5]): attenuated; modulation index score, EGF N-DMR (A431 cells; score +1 per 10% modulation): −5; modulation index score, EGF P-DMR (A431 cells; score +1 per 10% modulation): 0; modulation index score, forskolin (A549 cells [3]; score +1 per 10% modulation): 2; modulation index score, histamine early P-DMR (A549 cells [3]; score +1 per 10% modulation): 4; modulation index score, histamine late P-DMR (A549 cells [3]; score +1 per 10% modulation): 9; modulation index score, pinacidil (A549 cells [3]; score +1 per 10% positive modulation, opposite for negative): −1
CNCCNS(=O)(=O)c1cccc2cnccc12 [H-8]	–	complete or significant attenuation	–	–	–
CC(=O)c1ccc(N2CCOCC2)cc1O [DNA-PK inhibitor III, 1-(2-Hydroxy-4-morpholin-4-yl-phenyl)ethanone]	small attenuation	little or not modulation	significant potentiation	significant potentiation	–
NCCNS(=O)(=O)c1cccc2cnccc12 [H-9]	–	complete or significant attenuation	–	–	–
CC1CNCCN1S(=O)(=O)c1cccc2cnccc12 (stereo not drawn) [H-7]	–	complete or significant attenuation	–	–	–
O=S(=O)(c1cccc2cnccc12)N1CCCNCC1 [HA-1077]	–	complete or significant attenuation	–	–	–
